The experiment can be described thus: ORAC assay (inhibition of peroxyl-radical quenching of β-phycoerythrin fluorescence). Format: biochemical. To be noted: for AUC/μg mean: pure samples (100% by weight); for ORAC units (U): pure samples, normalized to Trolox on a weight basis. The text has this: Method: In order to determine the antioxidant capacity of the subject phytonutrients, the ORAC assay (Cao, G et al., Free Rad. Biol. Med. 14: 303-311[…]) was utilized. This simple procedure relies on the fact that peroxyl radicals will quench the fluorescence of β-phycoerythrin (β-PE) The addition of an antioxidant capable of scavenging these radicals is able to inhibit fluorescence quenching. Fluorescence is monitored as a function of time and the extent of quenching and its inhibition can be determined by calculating the area under the curve (AUC).
A typical reaction will contain 1.67×10^−8 M β-PE in phosphate buffer and 3×10^−3 M 2,2′-azobis(2-amidinopropane)dihydochloride (AAPH) as well as test material. The reaction is initiated by the addition of the peroxyl-radical generating reagent AAPH. […] The difference, or net protection, is equal to AUCsample−AUCblank, and represents the antioxidant capacity of the sample. […] Where one ORAC unit (U) is defined as the net protection provided by 1 nmol/ml Trolox (i.e., 1 μM). […] The final results are normalized to Trolox on a weight basis.
units=(AUC/μg)test/(AUC/μg)trolox.
To generate the data set forth in the present example, samples were prepared in acetonitrile, sometimes with the aid of sonication to facilitate dissolution. One to five μl of sample was added to each 3 ml cuvette, the reaction initiated with AAPH and fluorescence monitored until the quenching was complete. The predicted value for the mixtures was calculated by using the following equation: […]

The results in this text go back to US6602517B2, “Dietary supplements for treating inflammation-related diseases” (Metagenics, Inc., priority 1999, dated 2003).

On to `COc1cc(/C=C/C(=O)CC(=O)/C=C/c2ccc(O)c(OC)c2)ccc1O` [curcumin], for which the AUC/μg mean is given as 15.93 AUC/μg. Regarding `O=c1c(O)c(-c2ccc(O)c(O)c2)oc2cc(O)cc(O)c12` [quercetin], the AUC/μg mean is 14.45 AUC/μg and the “ORAC units (U)” value was 1.62 U. The matching figures for `Cc1c(C)c2c(c(C)c1O)CCC(C)(C(=O)O)O2` (centres unmarked) [Trolox, reference compound]: 8.9 AUC/μg and 1.00 U.
